Patent US10730863B2, “Bridged bicyclic compounds as farnesoid X receptor modulators” (BRISTOL-MYERS SQUIBB COMPANY, priority 2017, dated 2020)
pEC50: −log10 of the molar value.

Target: FXR (Homo sapiens (Human), UniProt Q96RI1)
Test: FXR EC50 (FXR agonist activity reported with each example)
Assay type: cell-based

Sequence of FXR (Q96RI1 262-486): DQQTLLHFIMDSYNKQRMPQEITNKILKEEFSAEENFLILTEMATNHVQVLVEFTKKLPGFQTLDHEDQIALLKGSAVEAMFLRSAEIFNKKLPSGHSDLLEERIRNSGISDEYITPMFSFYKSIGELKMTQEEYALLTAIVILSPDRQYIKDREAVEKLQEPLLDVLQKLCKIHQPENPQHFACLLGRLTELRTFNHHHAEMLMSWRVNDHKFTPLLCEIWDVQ

Structure (SMILES): COC(=O)c1ccc(NC(=O)C23CCC(COCc4c(-c5c(Cl)cccc5Cl)noc4C4CC4)(CC2)CC3)c(Cl)c1 [Intermediate 170A, methyl 3-chloro-4-(4-(((5-cyclopropyl-3-(2,6-dichlorophenyl)isoxazol-4-yl)methoxy)methyl)bicyclo[2.2.2]octane-1-carboxamido)benzoate]
- pEC50: 5.62

Structure (SMILES): CS(=O)(=O)NC(=O)c1cc(C(F)(F)F)c2cc(OCC34CCC(OCc5c(-c6c(Cl)cncc6Cl)noc5C5CC5)(CC3)CC4)ccc2n1 [Example 286]
- pEC50: 7.72

Structure (SMILES): O=C(O)c1cc(OCC23CCC(/C=C/c4c(-c5c(Cl)cncc5Cl)noc4C4CC4)(CC2)CO3)cc(C(F)(F)F)c1 [Example 468, (E)-3-((4-(2-(5-cyclopropyl-3-(3,5-dichloropyridin-4-yl)isoxazol-4-yl)vinyl)-2-oxabicyclo[2.2.2]octan-1-yl)methoxy)-5-(trifluoromethyl)benzoic acid]
- pEC50: 7.15

Structure (SMILES): O=C(O)c1csc(OCC23CCC(COCc4c(-c5c(Cl)cccc5Cl)noc4C4CC4)(CC2)CC3)n1 [Example 176, 2-((4-(((5-cyclopropyl-3-(2,6-dichlorophenyl)isoxazol-4-yl)methoxy)methyl)bicyclo[2.2.2]octan-1-yl)methoxy)thiazole-4-carboxylic acid]
- pEC50: 6.13

Structure (SMILES): O=C(O)c1cc(-c2noc(C34CCC(/C=C/c5c(-c6c(Cl)cncc6Cl)noc5C5CC5)(CC3)CC4)n2)cc(C(F)(F)F)c1 [Example 436, (E)-3-(5-(4-(2-(5-cyclopropyl-3-(3,5-dichloropyridin-4-yl)isoxazol-4-yl)vinyl)bicyclo[2.2.2]octan-1-yl)-1,2,4-oxadiazol-3-yl)-5-(trifluoromethyl)benzoic acid]
- pEC50: 7.74

Structure (SMILES): O=C(O)c1ccc(F)c(OCC23CCC(OCc4c(-c5c(Cl)cncc5Cl)noc4C4CC4)(CC2)CC3)c1 [Example 98, 3-((4-((5-cyclopropyl-3-(3,5-dichloropyridin-4-yl)isoxazol-4-yl)methoxy)bicyclo[2.2.2]octan-1-yl)methoxy)-4-fluorobenzoic acid]
- pEC50: 7.66

Structure (SMILES): CC(C)Oc1nc(C(=O)O)cc2ccc(OCC34CCC(OCc5c(-c6c(Cl)cncc6Cl)noc5C5CC5)(CC3)CC4)cc12 [Example 357, 7-((4-((5-cyclopropyl-3-(3,5-dichloropyridin-4-yl)isoxazol-4-yl)methoxy)bicyclo[2.2.2]octan-1-yl)methoxy)-1-isopropoxyisoquinoline-3-carboxylic acid]
- pEC50: 7.89

Structure (SMILES): COc1cc(C(=O)N(C)C)nc2ccc(C#CC34CCC(OCc5c(-c6c(Cl)cncc6Cl)noc5C5CC5)(CC3)CC4)cc12 [Example 522, 6-((4-((5-cyclopropyl-3-(3,5-dichloropyridin-4-yl)isoxazol-4-yl)methoxy)bicyclo[2.2.2]octan-1-yl)ethynyl)-4-methoxy-N,N-dimethylquinoline-2-carboxamide]
- pEC50: 7.28

Structure (SMILES): O=C(O)c1cc(C(F)(F)F)cc(C#CC23CCC(OCc4c(-c5c(Cl)cncc5Cl)noc4C4CC4)(CC2)CC3)n1 [Example 373]
- pEC50: 6.34

Structure (SMILES): Cc1cc(OCC23CCC(OCc4c(-c5c(Cl)cncc5Cl)noc4C4CC4)(CC2)CC3)cc(C(=O)O)c1 [Example 322]
- pEC50: 8.15

Structure (SMILES): CC(C)(C#N)c1ccc(C23CCC(/C=C/c4c(-c5ccccc5C(F)(F)F)noc4C4CC4)(CC2)CO3)cc1 [Example 476, (E)-2-(4-(4-(2-(5-cyclopropyl-3-(2-(trifluoromethyl)phenyl)isoxazol-4-yl)vinyl)-2-oxabicyclo[2.2.2]octan-1-yl)phenyl)-2-methylpropanenitrile]
- pEC50: 6.16

Structure (SMILES): O=C(O)c1cc(C(F)(F)F)c2ccc(C34CCC(OCc5c(-c6c(Cl)cncc6Cl)noc5C5CC5)(CC3)CC4)nc2c1 [Example 422]
- pEC50: 6.44

Structure (SMILES): O=C(O)c1ccc2c(C(O)C34CCC(OCc5c(-c6c(Cl)cccc6Cl)noc5C5CC5)(CC3)CC4)ccnc2c1 (stereo not drawn) [Example 128, 4-((4-((5-cyclopropyl-3-(2,6-dichlorophenyl)isoxazol-4-yl)methoxy)bicyclo[2.2.2]octan-1-yl)(hydroxy)methyl)quinoline-7-carboxylic acid]
- pEC50: 6.15

Structure (SMILES): Cn1cc(C(=O)O)c2ccc(OCC34CCC(OCc5c(-c6c(Cl)cccc6Cl)noc5C5CC5)(CC3)CC4)cc21 [Example 90, 6-((4-((5-cyclopropyl-3-(2,6-dichlorophenyl)isoxazol-4-yl)methoxy)bicyclo[2.2.2]octan-1-yl)methoxy)-1-methyl-1H-indole-3-carboxylic acid]
- pEC50: 7.96

Structure (SMILES): O=C(O)c1ccc(N2CCCC2)c2nc(C34CCC(OCc5c(-c6c(Cl)cncc6Cl)noc5C5CC5)(CC3)CC4)ccc12 [Example 409]
- pEC50: 7.09

Structure (SMILES): O=C(O)c1cc(-c2noc(C34CCC(OCc5c(-c6c(Cl)cncc6Cl)noc5C5CC5)(CC3)CC4)n2)ccn1 [Example 249, 4-(5-(4-((5-cyclopropyl-3-(3,5-dichloropyridin-4-yl)isoxazol-4-yl)methoxy)bicyclo[2.2.2]octan-1-yl)-1,2,4-oxadiazol-3-yl)picolinic acid]
- pEC50: 6.62

Structure (SMILES): O=C(O)c1ccc(N2CCOCC2)c2nc(C34CCC(OCc5c(-c6c(Cl)cncc6Cl)noc5C5CC5)(CC3)CC4)ccc12 [Example 410, 2-(4-((5-cyclopropyl-3-(3,5-dichloropyridin-4-yl)isoxazol-4-yl)methoxy)bicyclo[2.2.2]octan-1-yl)-8-morpholinoquinoline-5-carboxylic acid]
- pEC50: 7.44

Structure (SMILES): O=C(O)c1cc(OCC23CCC(COCc4c(-c5c(Cl)cncc5Cl)noc4C4CC4)(CC2)CC3)cc(C(F)(F)F)c1 [Example 464, 3-((4-(((5-cyclopropyl-3-(3,5-dichloropyridin-4-yl)isoxazol-4-yl)methoxy)methyl)bicyclo[2.2.2]octan-1-yl)methoxy)-5-(trifluoromethyl)benzoic acid]
- pEC50: 6.52

Structure (SMILES): O=C(O)c1cccc(C23CCC(COCc4c(-c5ccccc5OC(F)(F)F)noc4C4CC4)(CC2)CO3)c1 [Example 204]
- pEC50: 6.36

Structure (SMILES): O=C(O)c1cc(-c2noc(C34CCC(COCc5c(-c6c(Cl)cncc6Cl)noc5C5CC5)(CC3)CC4)n2)cc(C(F)(F)F)c1 [Example 485, 3-(5-(4-(((5-cyclopropyl-3-(3,5-dichloropyridin-4-yl)isoxazol-4-yl)methoxy)methyl)bicyclo[2.2.2]octan-1-yl)-1,2,4-oxadiazol-3-yl)-5-(trifluoromethyl)benzoic acid]
- pEC50: 6.42

Structure (SMILES): O=C(O)c1cc(OC(F)F)cc(-c2noc(C34CCC(/C=C/c5c(-c6c(Cl)cncc6Cl)noc5C5CC5)(CC3)CO4)n2)c1 [Example 479, (E)-3-(5-(4-(2-(5-cyclopropyl-3-(3,5-dichloropyridin-4-yl)isoxazol-4-yl)vinyl)-2-oxabicyclo[2.2.2]octan-1-yl)-1,2,4-oxadiazol-3-yl)-5-(difluoromethoxy)benzoic acid]
- pEC50: 6.44

Structure (SMILES): O=C(O)c1cncc(-c2noc(C34CCC(OCc5c(-c6ccccc6OC(F)(F)F)noc5C5CC5)(CC3)CC4)n2)c1 [Example 44]
- pEC50: 6.06

Structure (SMILES): COc1c(C(=O)O)cccc1-c1noc(C23CCC(OCc4c(-c5c(Cl)cncc5Cl)noc4C4CC4)(CC2)CC3)n1 [Example 237, 3-(5-(4-((5-cyclopropyl-3-(3,5-dichloropyridin-4-yl)isoxazol-4-yl)methoxy)bicyclo[2.2.2]octan-1-yl)-1,2,4-oxadiazol-3-yl)-2-methoxybenzoic acid]
- pEC50: 7.57

Structure (SMILES): O=C(O)c1ccc2cc(CCC34CCC(OCc5c(-c6c(Cl)cncc6Cl)noc5C5CC5)(CC3)CC4)ccc2n1 [Example 515, 6-(2-(4-((5-cyclopropyl-3-(3,5-dichloropyridin-4-yl)isoxazol-4-yl)methoxy)bicyclo[2.2.2]octan-1-yl)ethyl)quinoline-2-carboxylicacid]
- pEC50: 7.06

Structure (SMILES): O=C(O)c1ccc(C23CCC(COCc4c(-c5ccccc5OC(F)(F)F)noc4C4CC4)(CC2)CO3)cc1 [Example 205]
- pEC50: 6.35

Structure (SMILES): O=C(O)c1cc(NC(=O)C23CCC(OCc4c(-c5c(Cl)cncc5Cl)noc4C4CC4)(CC2)CC3)cc(C(F)(F)F)c1 [Example 433, 3-(4-((5-cyclopropyl-3-(3,5-dichloropyridin-4-yl)isoxazol-4-yl)methoxy)bicyclo[2.2.2]octane-1-carboxamido)-5-(trifluoromethyl)benzoic acid]
- pEC50: 5.89

Structure (SMILES): O=C(O)c1cc(OCC2CC2)c2cc(OCC34CCC(OCc5c(-c6c(Cl)cncc6Cl)noc5C5CC5)(CC3)CC4)ccc2n1 [Example 346]
- pEC50: 7.74

Structure (SMILES): O=C(O)c1ncc(OCC23CCC(OCc4c(-c5c(Cl)cncc5Cl)noc4C4CC4)(CC2)CC3)cc1OC1CCC1 [Example 339]
- pEC50: 7.55

Structure (SMILES): O=C(O)c1cc(C(F)(F)F)cc(C23CCC(/C=C/c4c(-c5c(Cl)cncc5Cl)noc4C4CC4)(CC2)CO3)c1 [Example 491, (E)-3-(4-(2-(5-cyclopropyl-3-(3,5-dichloropyridin-4-yl)isoxazol-4-yl)vinyl)-2-oxabicyclo[2.2.2]octan-1-yl)-5-(trifluoromethyl)benzoic acid]
- pEC50: 7.59

Structure (SMILES): O=C(O)c1cccc(NC(=O)C23CCC(C=Cc4c(-c5c(Cl)cccc5Cl)noc4C4CC4)(CC2)CC3)c1Cl [Example 185]
- pEC50: 5.85

Structure (SMILES): O=C(O)c1cccc2nc(C34CCC(OCc5c(-c6c(Cl)cccc6Cl)noc5C5CC5)(CC3)CO4)sc12 [Example 454, 2-(4-((5-cyclopropyl-3-(2,6-dichlorophenyl)isoxazol-4-yl)methoxy)-2-oxabicyclo[2.2.2]octan-1-yl)benzo[d]thiazole-7-carboxylic acid]
- pEC50: 6.17

Structure (SMILES): O=C(O)c1cc(C(F)(F)F)c2cc(OCC34CCC(/C=C/c5c(-c6c(Cl)cncc6Cl)noc5C5CC5)(CC3)CO4)ccc2n1 [Example 500, (E)-6-((4-(2-(5-cyclopropyl-3-(3,5-dichloropyridin-4-yl)isoxazol-4-yl)vinyl)-2-oxabicyclo[2.2.2]octan-1-yl)methoxy)-4-(trifluoromethyl)quinoline-2-carboxylic acid]
- pEC50: 6.80

Structure (SMILES): CCCc1cc(C(=O)O)nc2c(F)cc(OCC34CCC(OCc5c(-c6c(Cl)cncc6Cl)noc5C5CC5)(CC3)CC4)cc12 [Example 309, 6-((4-((5-cyclopropyl-3-(3,5-dichloropyridin-4-yl)isoxazol-4-yl)methoxy)bicyclo[2.2.2]octan-1-yl)methoxy)-8-fluoro-4-propylquinoline-2-carboxylic acid]
- pEC50: 7.89
